Data set [1] is described as follows: Aggregation behavior of compound in DMF by UV-vis absorption spectra analysis. It counts as physicochemical.
Data set [2] can be described thus: Photostability in DMF assessed as release of singlet oxygen at 4 uM preincubated with DPBF in dark followed by irradiation with red light by DPBF decay assay. The format is functional.
The subject of data set [3] is HT-29. As to the kind of experiment: Photocytotoxicity against human HT-29 cells with high expression of alphaVbeta3 integrin assessed as decrease in cell viability preincubated for 2 hrs followed by red light irradiation and measured after overnight incubation by MTT assay. It counts as functional, cell-based. As to conditions: HT-29, light or radiation study; call rule not given here. For orientation: Tetrazolium dyes change colour on reduction, which living cells bring about.

In data set [4] the test system is HT-29. In words: Photocytotoxicity against human HT-29 cells with high expression of alphaVbeta3 integrin assessed as decrease in cell viability preincubated for 24 hrs followed by red light irradiation and measured after overnight incubation by MTT assay. The format is functional, cell-based. As to conditions: HT-29, light or radiation study.
Data set [5] has as its system MCF7. In words: Photocytotoxicity against human MCF7 cells with low expression of alphaVbeta3 integrin assessed as decrease in cell viability preincubated for 2 hrs followed by red light irradiation and measured after overnight incubation by MTT assay. It counts as functional, cell-based. As to conditions: MCF7, light or radiation study.
The test system of data set [6] is MCF7. As to the kind of experiment: Photocytotoxicity against human MCF7 cells with low expression of alphaVbeta3 integrin assessed as decrease in cell viability preincubated for 24 hrs followed by red light irradiation and measured after overnight incubation by MTT assay. The format is functional, cell-based. As to conditions: MCF7, light or radiation study.
Data set [7] can be described thus: Selectivity ratio of IC50 for human MCF7 cells with low expression of alphaVbeta3 integrin to IC50 for human HT-29 cells with high expression of alphaVbeta3 integrin preincubated for 2 hrs followed by red light irradiation and measured after overnight incubation by MTT assay. It counts as functional.
A short description of data set [8]: Selectivity ratio of IC50 for human MCF7 cells with low expression of alphaVbeta3 integrin to IC50 for human HT-29 cells with high expression of alphaVbeta3 integrin preincubated for 24 hrs followed by red light irradiation and measured after overnight incubation by MTT assay. It counts as functional.
Data set [9] is described as follows: Aggregation behavior of compound in RPMI 1640 medium with 0.05% cremophor EL at 3 uM by UV-vis absorption spectra analysis. It counts as physicochemical.
Data set [10] can be described thus: Aggregation behavior of compound in DMF at 1 to 6 uM by UV-vis absorption spectra analysis. The format is physicochemical.
Data set [11] in a line: Aggregation behavior of compound in water at 3 uM by UV-vis absorption spectra analysis. The format is physicochemical. As to conditions: buffer.

The IC50 is the concentration at which inhibition is half-maximal. With `[N-]=[N+]=NCCOCCOCCO[Si]1(OCCOCCOCCN=[N+]=[N-])n2c3c4ccccc4c2/N=C2N=C(/N=c4/c5ccccc5/c(n41)=N/C1=NC(=N\3)/c3ccccc31)c1ccccc1\2` (centres undefined), the Activity entry in data set [1] is given as “Not Active”. Besides, the Stability result in data set [2] is “Unstable”. The IC50 was found to be 8.6 nM with HT-29 [3], 7.9 nM with HT-29 [4], 12 nM with MCF7 [5] and 11 nM with MCF7 [6]. The “Ratio IC50” value in [7] worked out at 1.4; in data set [8] it was 1.39.
With `N=C(N)NCCC[C@@H]1NC(=O)[C@H](Cc2cn(CCOCCO[Si]3(OCCOCCn4cc(C[C@@H]5NC(=O)[C@@H](Cc6ccccc6)NC(=O)[C@H](CC(=O)O)NC(=O)CNC(=O)[C@H](CCCNC(=N)N)NC5=O)nn4)n4c5c6ccccc6c4/N=C4N=C(/N=c6/c7ccccc7/c(n63)=N/C3=NC(=N\5)/c5ccccc53)c3ccccc3\4)nn2)NC(=O)[C@@H](Cc2ccccc2)NC(=O)[C@H](CC(=O)O)NC(=O)CNC1=O` (some centres undefined), the Activity result in [9], in [10] and in data set [11] was “Not Active” in each case. The Stability result in [2] is reported as “Unstable”. Besides, the IC50 in the data set with HT-29 [3] stood at 22 nM; in the data set with HT-29 [4], 14 nM; with MCF7 [5] it was 38 nM; with MCF7 [6], 23 nM. In addition, the “Ratio IC50” value in data set [7] came out at 1.73; in [8], 1.64.
In the case of `N=C(N)NCCC[C@@H]1NC(=O)[C@H](Cc2cn(CCOCCOCCOCCO[Si]3(OCCOCCOCCOCCO)n4c5c6ccccc6c4/N=C4N=C(/N=c6/c7ccccc7/c(n63)=N/C3=NC(=N\5)/c5ccccc53)c3ccccc3\4)nn2)NC(=O)[C@@H](Cc2ccccc2)NC(=O)[C@H](CC(=O)O)NC(=O)CNC1=O` (some centres undefined), the Activity result in data set [9], in [10] and in [11] was “Not Active” throughout. In data set [2], the Stability result is listed as “Unstable”. For the same compound, the concentration for half-maximal inhibition (IC50) in the data set with HT-29 [3] turned out to be 32 nM; with HT-29 [4], 32 nM; in the data set on MCF7 [5] it was 35 nM; in the data set on MCF7 [6] it was 33 nM. The figures for the “Ratio IC50” value in data set [7] and in data set [8] were 1.09 and 1.03, respectively.
Turning to `N=C(N)NCCC[C@@H]1NC(=O)[C@H](Cc2cn(CCOCCO[Si]3(OCCOCCO)n4c5c6ccccc6c4/N=C4N=C(/N=c6/c7ccccc7/c(n63)=N/C3=NC(=N\5)/c5ccccc53)c3ccccc3\4)nn2)NC(=O)[C@@H](Cc2ccccc2)NC(=O)[C@H](CC(=O)O)NC(=O)CNC1=O` (some centres undefined), the Activity entry in [9], in [10] and in data set [11] was “Not Active” each time. Besides, in data set [2], the Stability entry is “Unstable”. The IC50 amounted to 33 nM in the data set with HT-29 [3], 35 nM in the data set on HT-29 [4], 33 nM in the data set with MCF7 [5] and 39 nM in the data set on MCF7 [6]. Moreover, the “Ratio IC50” value in [7] was 1; in [8], 1.11.
In the case of `OCCOCCOCCOCCO[Si]1(OCCOCCOCCOCCO)n2c3c4ccccc4c2/N=C2N=C(/N=c4/c5ccccc5/c(n41)=N/C1=NC(=N\3)/c3ccccc31)c1ccccc1\2`, the Activity result in [1] is reported as “Not Active”. Also, in data set [2], the Stability result is reported as “Unstable”. The IC50 in the data set on HT-29 [3], with HT-29 [4], in the data set on MCF7 [5] and in the data set on MCF7 [6] was 0.2 nM each time. Also, the “Ratio IC50” value in [7] and in data set [8] was 1 each time.
Consider `OCCOCCO[Si]1(OCCOCCO)n2c3c4ccccc4c2/N=C2N=C(/N=c4/c5ccccc5/c(n41)=N/C1=NC(=N\3)/c3ccccc31)c1ccccc1\2`, for which the Activity entry in data set [1] is on record as “Not Active”. In addition, the Stability result in data set [2] is reported as “Unstable”. The IC50 with HT-29 [3] was determined as 1.2 nM; in the data set with HT-29 [4], 0.8 nM; with MCF7 [5] it was 1 nM; in the data set on MCF7 [6], 0.9 nM. For the same compound, the entries for the “Ratio IC50” value in [7] and in data set [8] were 0.83 and 1.13, respectively.
With `N=C(N)NCCC[C@@H]1NC(=O)[C@H](Cc2cn(CCOCCOCCOCCO[Si]3(OCCOCCOCCOCCn4cc(C[C@@H]5NC(=O)[C@@H](Cc6ccccc6)NC(=O)[C@H](CC(=O)O)NC(=O)CNC(=O)[C@H](CCCNC(=N)N)NC5=O)nn4)n4c5c6ccccc6c4/N=C4N=C(/N=c6/c7ccccc7/c(n63)=N/C3=NC(=N\5)/c5ccccc53)c3ccccc3\4)nn2)NC(=O)[C@@H](Cc2ccccc2)NC(=O)[C@H](CC(=O)O)NC(=O)CNC1=O` (some centres undefined), the Activity result in [9], in data set [10] and in data set [11] was “Not Active” in each case. For the same compound, in data set [2], the Stability entry is “Unstable”. The IC50 in the data set on HT-29 [3] was found to be 19 nM; with HT-29 [4] it was 13 nM; with MCF7 [5], 32 nM; in the data set with MCF7 [6], 32 nM. The entries for the “Ratio IC50” value in [7] and in data set [8] were 1.68 and 2.46, respectively.
For `[N-]=[N+]=NCCOCCOCCOCCO[Si]1(OCCOCCOCCOCCN=[N+]=[N-])n2c3c4ccccc4c2/N=C2N=C(/N=c4/c5ccccc5/c(n41)=N/C1=NC(=N\3)/c3ccccc31)c1ccccc1\2` (centres undefined), the Activity result in [1] is reported as “Not Active”. Moreover, in data set [2], the Stability result is given as “Unstable”. Moreover, the IC50 with HT-29 [3] is 6.3 nM; in the data set on HT-29 [4], 3.9 nM; in the data set with MCF7 [5] it was 6.5 nM; in the data set with MCF7 [6], 4 nM. The “Ratio IC50” value in [7] and in data set [8] was 1.03 each time.
Regarding `N=C(N)NCCC[C@@H]1NC(=O)[C@H](Cc2cn(CCOCCOCCO[Si]3(OCCOCCOCCO)n4c5c6ccccc6c4/N=C4N=C(/N=c6/c7ccccc7/c(n63)=N/C3=NC(=N\5)/c5ccccc53)c3ccccc3\4)nn2)NC(=O)[C@@H](Cc2ccccc2)NC(=O)[C@H](CC(=O)O)NC(=O)CNC1=O` (some centres undefined), the Activity entry in data set [9], in data set [10] and in [11] was “Not Active” throughout. For the same compound, in [2], the Stability entry was “Unstable”. The IC50 came out at 32 nM in the data set with HT-29 [3], 26 nM in the data set on HT-29 [4], 39 nM with MCF7 [5] and 26 nM with MCF7 [6]. In addition, the “Ratio IC50” value in data set [7] is on record as 1.22; in [8], 1.
In the case of `[N-]=[N+]=NCCOCCO[Si]1(OCCOCCO)n2c3c4ccccc4c2/N=C2N=C(/N=c4/c5ccccc5/c(n41)=N/C1=NC(=N\3)/c3ccccc31)c1ccccc1\2` (centres undefined), the Activity entry in data set [1] is “Not Active”. The Stability entry in [2] is given as “Unstable”. Further, the IC50 with HT-29 [3] was determined as 3.2 nM; in the data set on HT-29 [4], 2.2 nM; in the data set on MCF7 [5], 3.7 nM; in the data set with MCF7 [6] it was 2.6 nM. Further, the “Ratio IC50” value is given as 1.15 in data set [7] and 1.18 in data set [8].
With `[N-]=[N+]=NCCOCCO[Si]1(OCCOCCN=[N+]=[N-])n2c3c4ccccc4c2/N=C2N=C(/N=c4/c5ccccc5/c(n41)=N/C1=NC(=N\3)/c3ccccc31)c1ccccc1\2` (centres undefined), in [1], the outcome was Active. In addition, the Stability result in [2] was “Unstable”. In addition, the IC50 came to 12 nM in the data set with HT-29 [3], 7.1 nM with HT-29 [4], 12 nM in the data set with MCF7 [5] and 4.4 nM with MCF7 [6]. Further, the “Ratio IC50” value in [7] was found to be 1; in [8] it was 0.62.
As for `[N-]=[N+]=NCCOCCOCCOCCO[Si]1(OCCOCCOCCOCCO)n2c3c4ccccc4c2/N=C2N=C(/N=c4/c5ccccc5/c(n41)=N/C1=NC(=N\3)/c3ccccc31)c1ccccc1\2` (centres undefined), in data set [1], the Activity entry is “Not Active”. Besides, the Stability entry in data set [2] is “Unstable”. In addition, the IC50 in the data set on HT-29 [3] turned out to be 2.6 nM; with HT-29 [4] it was 1.4 nM; in the data set on MCF7 [5], 2.7 nM; in the data set on MCF7 [6], 1.7 nM. Further, the “Ratio IC50” value stood at 1.04 in data set [7] and 1.21 in [8].
For the compound `[N-]=[N+]=NCCOCCOCCO[Si]1(OCCOCCOCCO)n2c3c4ccccc4c2/N=C2N=C(/N=c4/c5ccccc5/c(n41)=N/C1=NC(=N\3)/c3ccccc31)c1ccccc1\2` (centres undefined), the Activity entry in [1] is given as “Not Active”. Besides, the Stability entry in data set [2] is on record as “Unstable”. Also, the IC50 in the data set on HT-29 [3] amounted to 3 nM; in the data set with HT-29 [4] it was 1.7 nM; in the data set on MCF7 [5] it was 2.5 nM; in the data set on MCF7 [6] it was 1.3 nM. For the same compound, the “Ratio IC50” value in [7] came out at 0.83; in data set [8], 0.76.

Source of the values: ChEMBL document CHEMBL4152282, “Synthesis and photodynamic activities of integrin-targeting silicon(IV) phthalocyanine-cRGD conjugates” (Eur J Med Chem, 2018).
